The term melting point denotes the temperature, or range, at which the solid turns liquid.

`CS(=O)(=O)c1ccc(Oc2cc(OCc3ccccc3)c3[nH]c(-c4nnc(CO)s4)cc3c2)cc1` returned a melting point of 159 to 160 °C. The figure for `c1ccc(COc2cccc(CCCn3ccnn3)c2)cc1` is 74 to 75 °C; for `Cc1cncn1CC#CCN1CCCC1=O` it is 194 to 197 °C. `NCC(=O)Nc1c(Br)cc(Br)cc1Br` gave a melting point of 185 to 186 °C. Next, `CSc1cc(C)cc(C)c1C=NO`: 115 to 117 °C; `CCCc1c(OCCCCCOc2ccc3c(=O)cc(C(=O)OCC)oc3c2CCC)ccc(C(C)=O)c1O`: 90 to 91 °C. Consider `COC(=O)c1c(S(=O)(=O)NC(=O)Nc2nc(C)nc(OC)n2)c(C)nn1C`, for which the melting point was in the range of 195 to 198 °C. `CC(=O)NN=C(C)c1ccncc1`: the melting point worked out at 178 °C. Molecule `CCCCCCCC(=O)C=Cc1ccc(O)c(OC)c1` yielded a melting point of 45 °C. The figure for `Nc1ccc2nc(-c3ccc(Cl)cc3)sc2c1` is 166 to 168 °C. In turn, `Cc1nc(-c2cccc(C(F)(F)F)c2)ccc1CO` showed a melting point of 73 to 75 °C. For `O=C(O)Cc1ccc2nc(Nc3ccccc3)oc2c1`, the melting point was 222 to 223 °C. The figure for `CC(C)CCCC(C)C1CCC2C3=CCC4C(C)(C)C(OC(=O)c5ccccc5)CCC4(C)C3CCC21C` (stereo not drawn) is 160 to 161 °C.

In the case of `O=C(O)CSC12CC3CC(CC(C3)C1)C2`, the melting point fell in the range of 71 to 73 °C.

`CC(C)(C)OC(=O)COc1ccc(NC(=O)NC(=O)c2ccc(C#N)nc2)cc1`: the melting point lay in the range of 220 to 222 °C. The figure for `Nc1ccccc1S(=O)(=O)N1CC=CC1` is 104 to 105 °C. In turn, `C#CCOc1ccc2c(c1)Sc1cc([N+](=O)[O-])ccc1N2` had a melting point of 226 to 227 °C. The figure for `CN(C)c1ccc(S(=O)(=O)Nc2cnc3ccc(Cl)cc3n2)cc1` is 206 to 207 °C; for `CC(=CN(C)C)C(=O)c1ccc(Cl)cc1` it is 45 to 47 °C; for `CCOC(=O)c1cc(=O)c2cc(Oc3ccccc3)c(NS(C)(=O)=O)cc2o1` it is 155 to 156 °C. Next, `CC(C)(C)OC(=O)NC[C@H]1CN(c2ccc3c(c2)CC(C(C)(C)C)N3)C(=O)O1` (stereo partly drawn): 153 to 160 °C. Next, `COc1ccc(CN(C)CCCc2ccc(NC(=O)c3cccc4c(=O)c5cccc([N+](=O)[O-])c5[nH]c34)cc2)cc1OC`: 192 °C; `CC1(O[Si](C)(C)C(C)(C)C)CN(c2ccc([N+](=O)[O-])cc2F)C1`: 98 to 99.5 °C. Molecule `COC(=O)Cc1cccc(OCc2nc(CCc3nc(-c4ccccc4)oc3C)no2)c1` had a melting point of 76 to 77 °C. Consider `O=C(NCCCCOc1ccc(-n2ccnc2)cc1)c1ccc(I)cc1`, for which the melting point lay in the range of 143 to 145 °C. The figure for `Nc1scc(CN2CCN(c3ccccc3)CC2)c1C(=O)c1ccc(Cl)cc1` is 112 °C. Next, `COc1ccccc1N1CCN(Cc2c(C3CC3)nn(-c3ccccc3)c2N)CC1`: 70 to 74 °C; `COC(=O)c1ccccc1NC(=O)Cl`: 80 to 82 °C. In turn, `CC(C)(C)OC(=O)C[C@H](NC(=O)CNC(=O)c1csc(NC(=O)NCc2ccccn2)n1)C(=O)NCc1ccccn1` had a melting point of 112 °C. Turning to `C[C@H]1CN(c2ccc(C(F)(F)F)c(Cl)n2)CCN1C(=O)OC(C)(C)C`, the melting point worked out at 86 °C. The figure for `C=C(C(=O)c1ccc(OC)c(Cl)c1Cl)C(C)C` is 46 to 51 °C; for `O=C1Nc2ccccc2C12COc1ccc(Br)cc12` (stereo not drawn) it is 225 to 228 °C. The figure for `CC(C)C(=O)C1(S(=O)(=O)c2ccc(O)cc2)CC1` is 111 to 112 °C; for `CCOC(=O)c1cc(SC(F)F)c(-c2ccc(Cl)cc2)[nH]1` it is 113 to 117 °C.

`CC(C)OC(=O)c1nc2ccc(OCCCN3CCC(OC(c4ccccc4)c4ccccc4)CC3)nn2n1` gave a melting point of 126 to 127 °C.

`C[Si](C)(C)CCOC(=O)c1cccc2nnsc12` displayed a melting point of 37 to 39 °C. Regarding `C=CCc1cc(CC(N)=O)ccc1OCC(O)CNCCC(=O)OCC` (stereo not drawn), the melting point was 98 °C. The figure for `CCn1cc2c(n1)c(N)nc1cc(OCc3ccccc3)ccc12` is 229 to 230 °C; for `CCCCCCCCCCCCCCCCCCON1C(=O)c2ccccc2C1=O` it is 82 to 88 °C; for `CCOc1ccc(Br)c(O)c1C(=O)NCC1CCCN1CC` (stereo not drawn) it is 74 to 76 °C. The figure for `O=C1CN(Cc2n[nH]c(=O)[nH]2)[C@@H](c2ccccc2)[C@@H](COCc2cc(C(F)(F)F)cc(C(F)(F)F)c2)N1` is 138 to 140 °C; for `COc1ccc(-c2csc(Nc3cc(OC)ccc3OC)n2)cc1` it is 104 °C; for `COc1ccc(CCOc2ccc(C(=O)N/C(=C\c3ccc(SC)cc3)C(=O)NCCO)cc2)cc1` it is 61 to 63 °C. For `COc1nc(Cl)cc(I)c1C=O`, the melting point lay within 120 to 124 °C. For `CCOC(=O)C1CC(O)CN1C(=O)c1ccc(OC)c(OC)c1` (stereo not drawn), the melting point was found to be 128 °C. The figure for `CN1CCCC(c2cccc3[nH]ccc23)C1` (stereo not drawn) is 151 °C; for `O=c1[nH]c2cc(Cl)ccc2c(O)c1-c1ccc(Cl)cc1` it is > 300 °C.

`CCOc1ccc(N(c2ccccc2)C2(c3ccc(N(CC)Cc4ccccc4)cc3)OC(=O)c3cc(N(C)C)ccc32)cc1` (stereo not drawn) showed a melting point of 148 to 152 °C. Next, `COc1ccc(F)cc1C(C)(C)CC(O)(CN1CCSc2ccccc21)C(F)(F)F` (stereo not drawn): 103 to 104 °C; `Cc1ccc(-c2[nH]c(-c3cccnc3)nc2C(=O)Nc2nccs2)cc1`: > 200 °C. Consider `COc1ccc(CNc2c([N+](=O)[O-])cc(Br)c3ccccc23)c(OC)c1`, for which the melting point was in the range of 104 to 105 °C.

`CSc1cc(C(=O)O)cc([N+](=O)[O-])c1C(=O)c1ccccc1` yielded a melting point of 210 to 213 °C. Next, `CCC(c1ccc2[nH]c(C(F)(F)F)nc2c1)n1ccnc1` (stereo not drawn): 173 °C; `Cc1cc(C2=NOC(c3cc(Cl)cc(Cl)c3)(C(F)(F)F)C2)ccc1C(=O)N(C)C1CCCS1` (stereo not drawn): 146 to 151 °C; `CN1CC2CC1CN2C1=Nc2cc(Cl)ccc2Sc2ccccc21` (stereo not drawn): 62 to 64 °C. The figure for `Cc1cccc(C2(Cn3cncn3)CC(COc3ccccc3[N+](=O)[O-])ON2C)c1` (stereo not drawn) is 149 to 152 °C. Next, `CC(C)(c1ccccc1)n1nnc(-c2ccccc2-c2ccc(CO)cc2)n1`: 117 to 120 °C; `Cc1ccc(C2(O)c3c(C)c(NC(=O)CC(C)(C)C)c(C)c(C)c3OC2(C)C)cc1` (stereo not drawn): 146 to 148 °C.

With `COc1ccccc1-c1coc2cc(O)c(Cl)cc2c1=O`, the melting point was 228 to 230 °C. `Cc1ccc(-c2nc(NC(=O)OCC[Si](C)(C)C)cs2)cc1`: the melting point lay in the range of 108 to 109 °C. The figure for `Cc1nc2[nH]c(=O)[nH]c2cc1-c1ccc(NC(=O)C(F)(F)F)cc1` is > 300 °C; for `COc1cc(-c2c(Cl)c(CN3C(=O)CCC3=O)nc3sc4c(c23)CCNC4)ccc1OC(C)C` it is 175 to 176 °C; for `CS(=O)(=O)c1ccc2c(c1)C(=O)Cc1ccccc1O2` it is 105 to 106 °C.

Values taken from a melting point compilation (Tetko et al.; mined from patent text by program, amines drawn as free bases though some values may be those of a salt).
